Assay results taken from patent US20110263693A1, “CELASTROL, GEDUNIN, AND DERIVATIVES THEREOF AS HSP90 INHIBITORS” (DANA-FARBER CANCER INSTITUTE, INC., priority 2006, published 2011).

Columns and labels:
celastrol signature = assay: Connectivity Map query with the celastrol signature; format: cell-based, human; parameters: key to celastrol score (connectivity score): connectivity score, based on Kolmogorov-Smirnov statistic; conditions: for celastrol score (connectivity score): enrichment of the celastrol signature (1.25 μM celastrol at 6 h, LNCaP) in the compound's Connectivity Map profiles, 6 hr treatment; for celastrol rank: rank by celastrol score among 164 Connectivity Map compounds
Outline: (§1)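 LNCaP cells received celastrol 1.25 μM or gedunin 20 μM for 6 h. Each signature was scored by Kolmogorov–Smirnov-based connectivity against 453 build01 profiles, mostly 6 h treatments of MCF7 cells.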

gedunin signature = assay: Connectivity Map query with the gedunin signature; format: cell-based, human; parameters: key to gedunin score (connectivity score): connectivity score, based on Kolmogorov-Smirnov statistic; conditions: for gedunin score (connectivity score): enrichment of the gedunin signature (20 μM gedunin at 6 hours, LNCaP) in the compound's Connectivity Map profiles, 6 hr treatment; for connectivity scores for the gedunin signature: multiple instances, gedunin signature from LNCaP, 6 hours; for gedunin rank: rank by gedunin score among 164 Connectivity Map compounds
Outline: as §1

[1] = test system: celastrol and gedunin signatures; assay: Connectivity Map query with the celastrol and gedunin signatures (joint); format: cell-based, human; conditions: Connectivity Map profiles, 6 hr
Source text: Indeed, a major challenge in cell-based chemical biology and chemical genomics is the identification of compounds' targets (Gardner et al., 2003). We hypothesized that gene expression signatures could be used to identify compound action based on the similarity of such compound-induced signatures to signatures of existing drugs of known mechanism. We therefore employed a collection of gene expression profiles of drug-treated cell lines that was developed in our lab, termed the Connectivity Map (Lamb et al., 2006). This database comprises 453 genome-wide Affymetrix expression profiles derived from the treatment of human cell lines with 164 small molecules, primarily FDA-approved drugs. A 6 hr treatment time was chosen in an attempt to capture the primary, and potentially mechanistic, effects of the compounds rather than the downstream phenotypic consequences.
In order to use the Connectivity Map to gain insight into celastrol and gedunin function, we first defined a gene expression signature of celastrol and gedunin activity. The expression signatures of celastrol and gedunin were derived by expression profiling of RNA from LNCaP cells treated with celastrol (1.25 μM), gedunin (20 μM), and vehicle (DMSO) for 6 hr; signatures were defined using comparative marker selection to identify transcripts that distinguished between the compound- and vehicle-treated profiles by the signal-to-noise (SNR) metric. The enrichment of these signatures in the gene expression profiles of the Connectivity Map database was then assessed using a gene enrichment metric, the connectivity score, based on the Kolmogorov-Smirnov statistic (Lamb et al., 2003).
The celastrol and gedunin signatures were developed from RMA-processed microarray data from LNCaP cells treated with 1.25 μM celastrol or 20 μM gedunin for 6 hours. Comparative marker selection was used to identify markers that distinguished celastrol- and/or gedunin-treated samples from vehicle-treated samples by the median SNR (Golub et al., 1999). […]

[2] = test system: androgen signaling signature in LNCaP cells; assay: GE-HTS androgen signaling signature assay / screen; conditions: LNCaP, with and without 12 hours androgen pretreatment
in vitro = conditions: human
[3] = test system: HSP90 interaction with the cochaperone p23; assay: HSP90 coimmunoprecipitation, p23; format: cell-based; conditions: SKBR-3 cells; celastrol 2.5 μM, 12 hr
Procedure: Geldanamycin and other HSP90 inhibitors are known to inhibit p23 association with HSP90 (Felts et al., 2003).
SKBR-3 cells were treated with vehicle, celastrol (2.5 μM, 12 hr), and PU24FCI (20 μM, 24 hr) (Vilenchik et al., 2004). Cells were lysed in 20 mM Tris HCl (pH 7.4), 25 mM NaCl, 2 mM DDT, 20 mM Na2MoO4, 0.1% NP-40, and […]. Lysates were incubated for 2 hr at 4° C., rotating, and then centrifuged at 13,000×g for 10 min. Protein (500 μg) was incubated with H9010 anti-HSP90 antibody for 1 hr at 4° C., rotating. Protein G agarose (30 μl; Upstate) was added to each sample, and samples were then incubated for 1 hr at 4° C., rotating. The beads were washed five times with 1 ml lysis buffer. Bound proteins were isolated by boiling in sample buffer. The levels of HSP90 and coimmunoprecipitating proteins were analyzed by western blot.

HSP90α = HSP90α (Homo sapiens, UniProt P07900); assay: Geldanamycin competition assay (Cy3B-geldanamycin fluorescence polarization); format: binding; parameters: purchased Stressgen SPP776 / SPP-776; conditions: celastrol and gedunin at concentrations up to ~100 μM
Procedure: We first tested whether celastrol or gedunin could compete with Cy3B-geldanamycin for binding to the ATP-binding pocket of purified HSP90α by fluorescence polarization assay (Kim et al., 2004, Llauger-Bufi et al., 2003).
The geldanamycin competition assay was performed as described (He et al., 2006, Kim et al., 2004), except that Cy3B-geldanamycin rather than BODIPY-geldanamycin was used as described herein.
Measurements were taken in black 96-well microtiter plates (Coming #3650). The assay buffer (HFB) contained 20 mM HEPES (K) pH 7.3, 50 mM KCl, 5 mM MgCl2, 20 mM Na2MoO4, 0.01% NP40. Before each use, 0.1 mg/mL bovine gamma globulin (BGG) (Panvera Corporation, Madison, Wis.) and 2 mM DTT (Fisher Biotech, Fair Lawn, N.J.) were freshly added. GM-cy3B was synthesized as previously reported and was dissolved in DMSO to form 10 μM solutions. Cell lysates were prepared rupturing cellular membranes by freezing at −70° C. and dissolving the cellular extract in HFB with added protease and phosphotase inhibitors. Saturation curves were recorded in which GM-cy3B (3 nM) was treated with increasing amounts of cellular lysates.

| Compound | celastrol score (connectivity score) (celastrol signature) | celastrol rank (celastrol signature) | gedunin score (connectivity score) (gedunin signature) | connectivity scores for the gedunin signature (gedunin signature) | gedunin rank (gedunin signature) | similarity of gene expression profile to the celastrol and gedunin signatures [1] | effect on the GE-HTS androgen signaling signature outside the screen [2] | viability (in vitro) [%] | HSP90 interaction with cochaperone p23 (coimmunoprecipitation) [3] | competition with Cy3B-geldanamycin for binding to the ATP-binding pocket of HSP90α (HSP90α) |
| --- | --- | --- | --- | --- | --- | --- | --- | --- | --- | --- |
| C=CCNC1=C2C[C@@H](C)C[C@H](OC)[C@H](O)[C@@H](C)/C=C(\C)[C@H](OC(N)=O)[C@@H](OC)/C=C\C=C(/C)C(=O)NC(=CC1=O)C2=O [17-AAG, 17-allylamino-geldanamycin, reference compound] | 0.736 | 8 | 0.702 | High connectivity scores | 6 | very strong similarity | suppressed the androgen signaling signature |  |  |  |
| CO[C@H]1C[C@H](O[C@@H]2/C(C)=C/C[C@@H]3C[C@@H](C[C@]4(CC[C@H](C)[C@@H](C5CCCCC5)O4)O3)OC(=O)[C@@H]3C=C(C)/C(=N/O)[C@H]4OC/C(=C\C=C\[C@@H]2C)[C@]43O)O[C@@H](C)[C@@H]1O [selamectin] |  |  |  |  |  |  |  | 81.1 |  |  |
| CC(C)NCCCn1c(Sc2cc3c(cc2I)OCO3)nc2c(N)ncnc21 [PU-H71, reference compound] |  |  |  |  |  |  |  |  | had the same effect | competed with geldanamycin binding at low concentrations |
| C[C@@H]1C[C@H]2O[C@@H]2/C=C\C=C\C(=O)Cc2c(Cl)c(O)cc(O)c2C(=O)O1 [monorden, reference compound] | 0.409 |  | 0.511 |  |  | very strong similarity |  |  |  |  |
| CO[C@H]1/C=C\C=C(/C)C(=O)NC2=CC(=O)C(NCCN(C)C)=C(C[C@@H](C)C[C@H](OC)[C@H](O)[C@@H](C)/C=C(\C)[C@@H]1OC(N)=O)C2=O [17-DMAG, 17-dimethylaminoethylamino-17-demethoxy-geldanamycin, reference compound] | 0.766 | 6 | 0.73 | High connectivity scores | 5 | very strong similarity |  |  |  |  |
